Data taken from US8207293B2, “Peptides derived from maurocalcine used as vectors for intracellular addressing of molecules of interest” (Commissariat a l'Energie Atomique, priority 2004, dated 2012).
Read-outs that look alike come from different tables or passages of the source.

Experiments:
HEK293 cells [1] = assay: Flow cytometry analysis of cellular penetration of complexes (trypsin/heparin treatment); format: cell-based, human; settings: for penetrating activity compared with maurocalcine (factor): biotinylated variant/Strept-Cy3 complexes, FIG. 5
Protocol: The cells are incubated with maurocalcine and the derived peptides, biotinylated and complexed with […], at the final concentration of 100 nM in PBS, in the dark and at ambient temperature for 1 hour. After 2 washes in PBS (PBS, in mM: […], 6.84 Na2HPO4, 3.16 NaH2PO4, pH 7.2), and the cells were treated with trypsin (1 mg/ml, INVITROGEN), for 10 min at 37° C., in order to remove the extracellular complexes and the plasma-membrane-bound complexes. After the incubation with trypsin, the cell suspension was centrifuged at 500 g and the cells were resuspended in PBS containing 1 μg/ml of propidium iodide (SIGMA). […] The analysis was carried out on live cells, using a flow cytometer (FACScalibur, BECTON DICKINSON). The data were recorded and analyzed using appropriate software (CellQuest, BD BIOSCIENCES). The live cells were sorted according to their size and their granulosity (forward/side scattering), over a total of 10 000 events.
The analysis is carried out as described in Example 1. For the heparin treatment experiments, the complexes were prepared in a heparin solution (bovine intestine heparin, sodium salt, SIGMA) and the cells were washed twice with the heparin solution, before and after incubation with the complexes prepared in the same heparin solution.
The cellular penetration was analyzed by flow cytometry, on cells incubated with the MCab/Strept-Cy3 complexes, and then treated with trypsin, so as to remove the complexes bound to the plasma membrane by means of lipids, specific receptors or heparan sulfate glycosaminoglycan (HPSG). It has been shown that this method makes it possible to effectively study the entry of penetrating peptides into cells (Richard et al., J. Biol. Chem., 2003, 278, 585-590).

RyR1 receptor = target: T1, RyR1 receptor (Oryctolagus cuniculus, UniProt P11716); assay: Tritiated ryanodine binding assay on heavy sarcoplasmic reticulum vesicles; settings: biotinylated variants complexed with Strept-Cy3, increasing concentrations
T1 construct: from tissue; host or cells: heavy sarcoplasmic reticulum vesicles (skeletal muscle implied)
Protocol: The heavy sarcoplasmic reticulum vesicles are prepared according to the method of Kim et al. (J. Biol. Chem., 1983, 258, 9662-9668) modified as described in Marty et al. (J. Biol. Chem., 2000, 275, 8206-8212). The protein concentration is measured by the Biuret method.
The heavy sarcoplasmic reticulum vesicles (1 mg/ml) are incubated at 37° C. for 2 hours and 30 min, in reaction buffer comprising 5 nM [^3H]-ryanodine, 150 mM NaCl, 2 mM EGTA, 2 mM Ca^2+ (pCa=5) and 20 mM Hepes, pH 7.4. Maurocalcine, the maurocalcine-derived peptides and their biotinylated derivatives are added before the addition of the heavy sarcoplasmic reticulum vesicles. The [^3H]-ryanodine bound to the heavy sarcoplasmic vesicles is measured by filtration through Whatmann GF/B filters, followed by three washes with 5 ml of ice-cold washing buffer (150 mM NaCl, 20 mM Hepes, pH 7.4). The [^3H]-ryanodine retained on the filters is measured by liquid scintillation. The nonspecific binding is measured in the presence of […] ryanodine (20 μM). The results are given in the form of means±standard deviation. Each experiment is carried out in triplicate and repeated at least twice.

HEK293 cells [2] = assay: Cell penetration and subcellular distribution of complexes in HEK293 cells, confocal microscopy; format: cell-based, human; settings: 333 nM, 30 min
Protocol: Soluble streptavidin-cyanin 3 and streptavidin-cyanin 5 (Strept-Cy^3 and Strept-Cy^5, AMERSHAM) were mixed with 4 molar equivalents of biotinylated maurocalcine (1 mM) or biotinylated maurocalcine-derived peptide, in phosphate buffer (PBS, in mM: 136 NaCl, 1.47 Na2HPO4, 2.6 KCl, 1 CaCl2, 0.5 MgCl2, pH 7.2), for 2 hours at 37° C. and in the dark.
The human embryonic kidney cells (HEK 293 line, ATCC) are divided before confluence, by treatment with trypsin (1%), and are maintained in DMEM medium (INVITROGEN) containing 10% of inactivated fetal calf serum (INVITROGEN) and 1% of penicillin/streptomycin (INVITROGEN), in a CO2 incubator (5%). The culture medium is changed every 2 days.
The cells were incubated with maurocalcine and the derived peptides, biotinylated and complexed with streptavidin-cyanin 3 or with streptavidin-cyanin 5, […], in the dark and at ambient temperature, for 30 minutes to 1 hour. After 3 washes in PBS, the cells are fixed at ambient temperature, in a paraformaldehyde solution (4%), for 10 min, in the dark, washed in PBS and incubated for one hour with FITC-conjugated concanavalin (MOLECULAR PROBES, 5 μg/ml) in order to label the plasma membrane, and TO-PRO-3 iodide (MOLECULAR PROBES, 1 μM) in order to label the nucleus. In order to label the cytoskeleton, the cells were fixed and permeabilized with ice-cold methanol, for 10 min, washed twice in PBS and incubated with a mouse anti-alpha-tubulin antibody (1:1000, SIGMA), for 2 hours. After two washes in PBS, the cells were incubated for one hour with an anti-mouse IgG secondary antibody conjugated to Alexa 488 (1:1000, MOLECULAR PROBES). The cultures were then mounted in Vectashield mounting medium (VECTOR LABORATORIES). Preparations were observed by laser scanning confocal microscopy, using a Leica TCS-SP2 control system. The Alexa-488 and Cy3 or propidium iodide (PI) fluorescences were excited sequentially and then recorded. The Cy3 fluorescence was excited using a 543 nm helium-neon laser beam and the fluorescence emission was recorded between 554 nm and 625 nm. The images were introduced into Adobe Photoshop 7.0.

[3] = Surface pressure of monomolecular lipid films (GD3)
Protocol: (§1) The disialoganglioside NeuAcα2-8NeuAca2-3Galb1-aGlcb1-Cer (GD3) and dipalmitoylphosphatidylcholine (DPPC) were provided respectively by MATREYA INC and SIGMA.
(§2) The surface pressure was measured using an automatic microtensiometer (μ THROUGH SX, KIBRON INC.). The apparatus makes it possible to record kinetics of interaction of a ligand with a monomolecular film using a series of appropriate Teflon probes. All the experiments were carried out in a controlled atmosphere at 20±1. The molecular films of the lipids indicated were deposited onto an aqueous phase of ultrapure water (800 μl), using hexane:chloroform:ethanol (11:5:4, v/v/v), as described previously (Mahfoud et al., J. Biol. Chem., 2002, 277, 11292-11296). After spreading of the film, a minimum period of elapsed time of 5 min was observed, in order to allow the solvent to evaporate off. In order to measure the interaction of MCa with the lipid monolayers, various concentrations of peptides were injected into the monomolecular film with a […] Hamilton syringe and the resulting increase in pressure, produced by the incorporation of the peptide, was recorded until equilibrium was reached (maximum increase in surface pressure generally reached after an incubation of 100 to 150 min). For the dose-dependent interaction between MCa and GD3, the monomolecular films of GD3 were prepared at an initial surface pressure (pi) of 10 mN·m^−1. The results were analyzed with Filmware 2.5 software (KIBRON INC.). The system for measuring the surface pressures was accurate to 0.25 mN·m^−1 under the experimental conditions.

[4] = Surface pressure of monomolecular lipid films (DPPC); settings: 1 μM
Protocol: as §1
as §2, with “For the dose-dependent interaction between MCa and GD3, the monomolecular films of GD3 were prepared at an initial surface pressure (pi) of 10 mN·m^−1.” left out, “The system for measuring the surface pressures was accurate to 0.25 mN·m^−1 under the experimental conditions.” left out

live cells = assay: Flow cytometry analysis of cellular penetration at increasing extracellular KCl (membrane potential); format: cell-based
Protocol: The MCab-Strept-Cy^5 complexes were prepared in solutions containing various NaCl/KCl ratios (composition in mM: 145 to 5 NaCl, 5 to 145 KCl, 2.5 CaCl2, 1.2 MgCl2, 10 glucose, 10 HEPES, pH 7.4).
The cells were washed twice with the NaCl/KCl solution used to prepare the complexes, and then incubated with maurocalcine and the derived peptides, which are biotinylated and complexed with streptavidin-cyanin 3 (MCab-Strept-Cy^3 complexes), at the final concentration of 100 nM in the same NaCl/KCl solution, in the dark and at ambient temperature for 1 hour. After 2 washes in the same NaCl/KCl buffer, the cyanin 3 fluorescence was analyzed on live cells, using a flow cytometer (FACScalibur, BECTON DICKINSON). The data were recorded and analyzed using appropriate software (CellQuest, BD BIOSCIENCES). The live cells were sorted according to their size and their granulosity (forward/side scattering), over a total of 10 000 events.

T1 sequence (P11716 whole entry): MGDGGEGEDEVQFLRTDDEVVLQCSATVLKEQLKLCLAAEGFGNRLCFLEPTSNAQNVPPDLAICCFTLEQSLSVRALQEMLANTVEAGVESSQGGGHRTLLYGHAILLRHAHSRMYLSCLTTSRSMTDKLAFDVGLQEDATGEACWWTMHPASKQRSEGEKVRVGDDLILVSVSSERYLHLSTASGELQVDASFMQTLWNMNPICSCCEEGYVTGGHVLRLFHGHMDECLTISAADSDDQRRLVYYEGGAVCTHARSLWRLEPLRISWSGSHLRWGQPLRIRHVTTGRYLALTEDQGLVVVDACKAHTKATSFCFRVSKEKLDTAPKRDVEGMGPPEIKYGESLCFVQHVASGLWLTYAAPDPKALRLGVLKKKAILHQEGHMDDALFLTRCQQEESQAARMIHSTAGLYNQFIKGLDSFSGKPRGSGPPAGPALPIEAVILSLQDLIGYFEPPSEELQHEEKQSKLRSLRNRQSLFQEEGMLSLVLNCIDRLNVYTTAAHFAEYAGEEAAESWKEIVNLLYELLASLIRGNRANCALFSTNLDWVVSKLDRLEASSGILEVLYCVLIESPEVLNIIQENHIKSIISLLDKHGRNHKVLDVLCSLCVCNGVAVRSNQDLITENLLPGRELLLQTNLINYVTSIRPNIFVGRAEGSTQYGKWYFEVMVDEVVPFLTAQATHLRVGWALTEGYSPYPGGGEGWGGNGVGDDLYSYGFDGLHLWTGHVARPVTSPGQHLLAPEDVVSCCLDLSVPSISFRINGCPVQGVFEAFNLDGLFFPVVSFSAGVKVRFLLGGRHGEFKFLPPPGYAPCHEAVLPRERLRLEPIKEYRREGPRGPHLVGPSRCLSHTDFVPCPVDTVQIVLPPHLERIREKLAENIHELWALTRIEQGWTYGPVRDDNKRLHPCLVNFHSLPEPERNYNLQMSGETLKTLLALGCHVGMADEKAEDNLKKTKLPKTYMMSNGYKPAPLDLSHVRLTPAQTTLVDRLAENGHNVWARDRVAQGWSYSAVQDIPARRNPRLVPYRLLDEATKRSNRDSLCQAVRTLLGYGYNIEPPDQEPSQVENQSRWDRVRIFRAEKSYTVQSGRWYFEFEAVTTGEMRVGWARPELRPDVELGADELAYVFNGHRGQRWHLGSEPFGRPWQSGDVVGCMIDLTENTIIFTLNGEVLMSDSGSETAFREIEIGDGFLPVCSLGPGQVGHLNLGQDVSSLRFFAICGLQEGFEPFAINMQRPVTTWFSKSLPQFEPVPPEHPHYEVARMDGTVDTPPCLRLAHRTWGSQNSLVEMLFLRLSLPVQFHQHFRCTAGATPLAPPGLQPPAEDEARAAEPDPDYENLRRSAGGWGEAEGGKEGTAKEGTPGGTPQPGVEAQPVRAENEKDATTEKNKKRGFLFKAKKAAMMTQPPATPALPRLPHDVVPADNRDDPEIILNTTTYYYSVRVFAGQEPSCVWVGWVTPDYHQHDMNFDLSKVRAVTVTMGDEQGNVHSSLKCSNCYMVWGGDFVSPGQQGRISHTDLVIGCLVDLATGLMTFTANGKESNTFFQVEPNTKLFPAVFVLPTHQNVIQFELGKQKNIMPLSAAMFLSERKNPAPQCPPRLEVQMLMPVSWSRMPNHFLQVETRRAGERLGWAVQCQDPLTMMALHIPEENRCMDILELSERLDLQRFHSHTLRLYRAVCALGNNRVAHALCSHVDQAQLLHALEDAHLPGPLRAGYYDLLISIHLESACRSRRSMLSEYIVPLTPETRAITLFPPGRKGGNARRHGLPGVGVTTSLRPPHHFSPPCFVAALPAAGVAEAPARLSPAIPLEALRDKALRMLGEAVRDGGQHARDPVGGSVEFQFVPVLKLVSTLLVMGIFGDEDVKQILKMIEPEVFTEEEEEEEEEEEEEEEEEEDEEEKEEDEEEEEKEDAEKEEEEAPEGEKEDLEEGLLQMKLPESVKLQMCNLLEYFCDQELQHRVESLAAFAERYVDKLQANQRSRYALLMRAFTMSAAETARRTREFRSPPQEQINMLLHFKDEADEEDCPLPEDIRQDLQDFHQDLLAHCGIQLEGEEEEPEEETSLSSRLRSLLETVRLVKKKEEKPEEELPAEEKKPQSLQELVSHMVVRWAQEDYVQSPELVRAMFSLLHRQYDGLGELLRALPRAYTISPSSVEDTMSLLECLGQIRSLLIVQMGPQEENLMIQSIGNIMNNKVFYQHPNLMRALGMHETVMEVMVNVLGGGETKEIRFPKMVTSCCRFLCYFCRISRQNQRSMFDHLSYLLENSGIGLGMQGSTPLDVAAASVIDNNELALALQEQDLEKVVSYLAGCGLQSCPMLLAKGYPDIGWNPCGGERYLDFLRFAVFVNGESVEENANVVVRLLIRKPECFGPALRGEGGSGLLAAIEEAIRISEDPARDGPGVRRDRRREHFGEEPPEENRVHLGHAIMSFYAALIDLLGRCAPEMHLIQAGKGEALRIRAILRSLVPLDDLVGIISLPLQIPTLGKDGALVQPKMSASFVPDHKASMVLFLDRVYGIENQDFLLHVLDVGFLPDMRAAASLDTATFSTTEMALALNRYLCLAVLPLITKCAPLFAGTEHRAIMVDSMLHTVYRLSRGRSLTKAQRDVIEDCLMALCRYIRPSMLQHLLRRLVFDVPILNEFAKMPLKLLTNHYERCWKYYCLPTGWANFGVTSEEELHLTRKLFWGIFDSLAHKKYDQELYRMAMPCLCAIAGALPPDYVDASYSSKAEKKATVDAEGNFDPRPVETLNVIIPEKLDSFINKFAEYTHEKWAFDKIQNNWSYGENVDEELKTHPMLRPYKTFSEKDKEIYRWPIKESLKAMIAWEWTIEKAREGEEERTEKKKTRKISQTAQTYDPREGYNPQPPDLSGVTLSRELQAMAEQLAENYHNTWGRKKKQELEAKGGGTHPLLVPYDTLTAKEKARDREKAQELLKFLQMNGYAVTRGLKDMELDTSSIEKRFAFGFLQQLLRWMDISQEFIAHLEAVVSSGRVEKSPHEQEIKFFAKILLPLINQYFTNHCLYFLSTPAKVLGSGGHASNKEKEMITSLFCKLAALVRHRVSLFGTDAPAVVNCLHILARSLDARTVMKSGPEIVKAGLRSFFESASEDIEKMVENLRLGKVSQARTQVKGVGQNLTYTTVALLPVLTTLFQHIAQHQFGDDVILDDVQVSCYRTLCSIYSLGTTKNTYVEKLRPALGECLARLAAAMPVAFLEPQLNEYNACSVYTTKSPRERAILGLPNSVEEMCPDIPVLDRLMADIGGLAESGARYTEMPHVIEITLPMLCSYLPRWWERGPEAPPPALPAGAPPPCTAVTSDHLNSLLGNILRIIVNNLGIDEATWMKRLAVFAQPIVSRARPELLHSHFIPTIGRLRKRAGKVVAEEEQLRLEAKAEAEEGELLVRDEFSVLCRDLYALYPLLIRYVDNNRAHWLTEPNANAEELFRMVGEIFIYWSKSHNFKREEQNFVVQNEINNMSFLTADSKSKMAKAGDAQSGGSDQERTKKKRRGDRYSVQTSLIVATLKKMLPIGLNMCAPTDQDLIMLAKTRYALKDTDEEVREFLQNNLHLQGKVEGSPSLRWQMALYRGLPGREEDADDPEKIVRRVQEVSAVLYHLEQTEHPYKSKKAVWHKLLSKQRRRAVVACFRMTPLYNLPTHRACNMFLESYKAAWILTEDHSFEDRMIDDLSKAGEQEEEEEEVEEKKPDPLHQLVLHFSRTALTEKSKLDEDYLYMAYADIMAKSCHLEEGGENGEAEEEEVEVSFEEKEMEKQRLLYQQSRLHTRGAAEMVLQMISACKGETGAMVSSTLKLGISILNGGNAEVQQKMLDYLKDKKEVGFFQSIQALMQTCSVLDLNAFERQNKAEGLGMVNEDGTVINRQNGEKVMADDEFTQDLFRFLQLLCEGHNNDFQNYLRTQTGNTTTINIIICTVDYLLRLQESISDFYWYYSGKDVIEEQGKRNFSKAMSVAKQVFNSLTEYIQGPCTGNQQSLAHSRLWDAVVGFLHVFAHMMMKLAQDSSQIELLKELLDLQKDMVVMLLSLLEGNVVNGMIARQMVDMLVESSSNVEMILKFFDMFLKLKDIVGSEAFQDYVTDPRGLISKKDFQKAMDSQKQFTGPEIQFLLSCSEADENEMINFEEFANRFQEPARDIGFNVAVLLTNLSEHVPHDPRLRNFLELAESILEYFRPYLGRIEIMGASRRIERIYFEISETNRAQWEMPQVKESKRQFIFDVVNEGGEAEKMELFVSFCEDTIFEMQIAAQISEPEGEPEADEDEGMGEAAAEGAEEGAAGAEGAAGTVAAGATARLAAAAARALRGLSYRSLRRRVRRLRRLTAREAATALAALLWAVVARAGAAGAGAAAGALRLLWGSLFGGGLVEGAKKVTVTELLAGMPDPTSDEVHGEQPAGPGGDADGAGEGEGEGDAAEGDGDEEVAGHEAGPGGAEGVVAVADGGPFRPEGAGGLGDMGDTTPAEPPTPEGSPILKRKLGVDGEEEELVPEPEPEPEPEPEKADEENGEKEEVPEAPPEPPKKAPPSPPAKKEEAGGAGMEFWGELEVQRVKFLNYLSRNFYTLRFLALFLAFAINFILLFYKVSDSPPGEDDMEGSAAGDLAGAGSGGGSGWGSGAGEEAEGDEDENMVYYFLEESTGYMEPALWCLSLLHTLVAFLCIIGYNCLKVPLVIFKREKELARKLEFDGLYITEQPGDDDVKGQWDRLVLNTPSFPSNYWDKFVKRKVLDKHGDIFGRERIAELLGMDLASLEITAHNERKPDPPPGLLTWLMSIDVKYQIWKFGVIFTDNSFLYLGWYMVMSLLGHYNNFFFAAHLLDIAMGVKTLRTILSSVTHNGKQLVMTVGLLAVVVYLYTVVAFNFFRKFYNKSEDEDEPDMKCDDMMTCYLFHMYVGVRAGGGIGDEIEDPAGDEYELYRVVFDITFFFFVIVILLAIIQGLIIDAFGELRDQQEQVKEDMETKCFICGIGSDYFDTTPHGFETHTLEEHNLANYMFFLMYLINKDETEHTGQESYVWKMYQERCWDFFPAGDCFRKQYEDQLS

Sequence | penetrating activity compared with maurocalcine (factor) (HEK293 cells [1]) | activity on the RyR1 receptor (stimulation of [3H]-ryanodine binding) (RyR1 receptor) | transduction of HEK293 cell cultures by biotinylated variant/Strept-Cy3 complexes (HEK293 cells [2]) | concentration at which interaction with GD3 is detectable [3] | concentration at which interaction with GD3 reaches a maximum [3] | maximum increase in surface pressure a (kinetics fit) ([3]; 1 μM MCa, GD3 film) | time constant for the change in surface pressure b ([3]; 1 μM MCa, GD3 film) | maximum increase in surface pressure a (dose-response fit) ([3]; GD3 film, as a function of MCa concentration) | EC50 ([3]; read-out: concentration that produces 50% of the maximum effect on GD3) | EC50 ([3]; sigmoidal fit, FIG. 11B, read-out: concentration X0 giving 50% of the maximum effect on GD3 surface pressure) | change in surface pressure of the DPPC film [4] | limitation of penetration by depolarization (increase in extracellular KCl) (live cells) | lowest concentration at which penetration into the cells occurs (HEK293 cells [1]; biotinylated peptide/Strept-Cy3 complexes, dose-response)
GDCLPHLKLCKENKDCCSKKCKRAGTNIEKRCR (maurocalcine R24A mutant) | comparable to, or even slightly less than, maurocalcine | inactive | effectively transduce cell cultures |  |  |  |  |  |  |  |  |  | 
GDCLPHLKLCKENKDCCSKKCKRRGTNIEKRCR [maurocalcine] |  |  |  | 100 nM | 750 nM | 22.9 mN·m^−1 | 0.0003 s⁻¹ | 22.1 mN·m^−1 | 500 nM | 490 nM | no significant change in surface pressure | approximately 50% | 10 nM
GDCLPHAKLCKENKDCCSKKCKRRGTNIEKRCR (maurocalcine L7A mutant) | 5 | less active on the RyR1 receptor than MCab/Strept-Cy3 | effectively transduce cell cultures |  |  |  |  |  |  |  |  |  | 
